Measurements reported in patent publication US20080287375A1, “Selective Glycosidase Inhibitors, Methods of Making Inhibitors, and Uses Thereof” (SIMON FRASER UNIVERSITY, priority 2005, published 2008).
pIC50, pKi: −log10 of the molar value. “Also recorded” adds a separate entry of the source. Where two headings read alike, the source gives them in different places.

Legend:
[1] = molecular target: human placental β-hexosaminidase; test: Inhibition of β-hexosaminidase, substrate MU-GlcNAc (5), Dixon plots
β-hexosaminidase = test: Time dependent inactivation of β-hexosaminidase by STZ; details: 10 mM STZ, pH 4.25, over six hours
[2] = Decomposition of STZ in D2O followed by NMR; details: room temperature
O-GlcNAcase [3] = molecular target: T1, O-GlcNAcase (Homo sapiens, UniProt O60502); test: Time dependent inactivation of O-GlcNAcase by STZ
T1 sequence (O60502 1-916): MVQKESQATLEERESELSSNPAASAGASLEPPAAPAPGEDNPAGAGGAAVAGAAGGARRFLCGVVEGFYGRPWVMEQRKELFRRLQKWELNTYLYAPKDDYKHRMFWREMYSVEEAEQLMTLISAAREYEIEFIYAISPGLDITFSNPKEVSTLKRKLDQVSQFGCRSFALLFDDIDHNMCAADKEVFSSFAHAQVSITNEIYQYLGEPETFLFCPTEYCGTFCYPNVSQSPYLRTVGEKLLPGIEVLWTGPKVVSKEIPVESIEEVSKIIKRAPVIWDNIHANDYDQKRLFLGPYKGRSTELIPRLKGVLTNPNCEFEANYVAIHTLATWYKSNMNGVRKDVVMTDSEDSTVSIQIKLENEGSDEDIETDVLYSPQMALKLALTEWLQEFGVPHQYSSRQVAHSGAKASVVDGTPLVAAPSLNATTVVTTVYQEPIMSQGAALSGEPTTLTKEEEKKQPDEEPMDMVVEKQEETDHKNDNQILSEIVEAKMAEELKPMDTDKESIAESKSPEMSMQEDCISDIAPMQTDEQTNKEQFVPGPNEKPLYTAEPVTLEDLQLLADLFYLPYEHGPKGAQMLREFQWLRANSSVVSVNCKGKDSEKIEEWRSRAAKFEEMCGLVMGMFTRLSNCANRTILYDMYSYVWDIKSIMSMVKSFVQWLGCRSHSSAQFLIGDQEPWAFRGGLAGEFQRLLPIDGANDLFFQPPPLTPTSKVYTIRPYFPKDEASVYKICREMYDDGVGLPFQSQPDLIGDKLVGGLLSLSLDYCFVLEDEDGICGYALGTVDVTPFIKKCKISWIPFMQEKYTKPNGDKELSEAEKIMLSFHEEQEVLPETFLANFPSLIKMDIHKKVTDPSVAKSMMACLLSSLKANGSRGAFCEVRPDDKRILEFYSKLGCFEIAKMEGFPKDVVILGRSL

O-GlcNAcase [4] = details: read-out: IC50, O-GlcNAcase, previous determinations; cited from earlier work
O-GlcNAcase [5] = molecular target: T1, O-GlcNAcase
COS-7 cells = test: Proliferation rate and morphology of COS-7 cells incubated with inhibitors; format: cell-based; details: 50 μM inhibitor
Procedure: (§1) COS-7 cells were cultured in DMEM medium (Invitrogen) supplemented with 5-10% FBS (Invitrogen). Aliquots of inhibitors (50 μL of a stock in 95% ethanol) were delivered onto tissue culture plates and the ethanol was evaporated. The cells were incubated at 37° C. for 40 hours at which time they reached approximately 80% confluence. […] COS-7 cells were cultured to 25% confluence in 5% FBS and an aliquot (100 μL) of inhibitor dissolved in media and filter sterilized was added to each plate to yield a final concentration of 50 μM of inhibitor. COS-7 cells (2×10 cm plates) were harvested at the appropriate times by scraping and were pooled by centrifugation (200×g, 10 min). Cells were washed once with PBS, pH 7.0 (10 mL) and pelleted (200×g, 10 min). The cells could be frozen at −80° C. at this point. Control cultures without inhibitors were treated in the same manner.

[6] = test system: O-GlcNAc-modified proteins in COS-7 cells; test: Western blot of O-GlcNAc-modified proteins in COS-7 cells cultured with inhibitors; format: cell-based; details: 50 μM inhibitor, 40 hours, Western blot
Procedure: as §1
A culture of control cells was treated in the same manner as follows but the cultures contained no inhibitor. Cells were harvested as described above. Frozen cells were thawed at 4° C., and cold lysis buffer (1 mL of 50 mM Tris, pH 8.0 containing 150 mM NaCl, 1 mM EDTA, 1 mM PMSF, 1% NP-40, 0.5% sodium deoxycholate, and 1 mM of inhibitor 90) was added. After 10 minutes at 4° C. the solution was centrifuged at 14,000 rpm in an Eppendorf 5415C microcentrifuge and the supernatant was collected. SDS/PAGE loading buffer was added to an aliquot (15 μL) of each sample, and after heating at 96° C. aliquots were loaded onto 10% or 12% Tris-HCl polyacrylamide gels. After electrophoresis, the samples were electroblotted to nitrocellulose membrane (0.45 μm, Bio-Rad). Transfer was verified by visual inspection of the transfer of prestained markers (Dual Colour Precision Plus Protein Standard—Biorad). The membrane was blocked by using 5% BSA (fraction V, Sigma) in PBS (blocking buffer A for samples probed with mouse anti-O-GlcNAc monoclonal IgM antibody (MAb CTD 110.6—Covance)) or 5% low-fat dry powdered milk (blocking buffer B for samples probed with anti-β-actin), pH 7.4, containing 0.1% Tween 20 for 1 h at room temperature or overnight at 4° C. The blocking solution was decanted, and a solution of blocking buffer A containing MAb CTD 110.6 (1:2500 of the stock) or blocking buffer B containing mouse monoclonal anti-β-actin IgG (Clone AC-40—Sigma) was added (1:1000 dilution) as appropriate. The membrane was incubated at room temperature for 1 h or overnight at 4° C. after which the blocking buffer was decanted and the membrane was rinsed with PBS, pH 7.4, containing 0.1% Tween 20 (wash buffer). Membranes were then rinsed for 2×5 min and 3×15 min with wash buffer. For immunological detection of O-GlcNAc, the membrane was incubated in blocking buffer A for 1 hour at RT and, after washing, the membrane was incubated with a secondary goat anti-mouse-IgM-HRP-conjugate (1:2500, Santa Cruz Biotech) for one hour at RT or 4° C. overnight in blocking solution. For detection of β-actin levels, the membrane was incubated with a secondary goat anti-mouse-IgG-HRP conjugate (1:100000, Sigma) for one hour at RT or 4° C. overnight in blocking solution B. Membranes were washed and detection of membrane bound goat anti-mouse-IgG-HRP conjugate was accomplished by chemiluminescent detection using the SuperSignal West Pico Chemiluminescent Detection Kit (Pierce) and film (Kodak Biomax MR).

| binding more tightly than GlcNAc, β-hexosaminidase [1] [fold] | SMILES | pKi ([1]; read-out: KI, β-hexosaminidase, human lysosomal β-hexosaminidase) | pKi ([1]; read-out: β-Hexosaminidase KI, Table 2, substrate 5 at 0.64 mM, pH 4.25, Dixon plots) | time dependent inactivation of β-hexosaminidase (β-hexosaminidase) | half-life in aqueous solution (D2O) [2] | time dependent inactivation of O-GlcNAcase (O-GlcNAcase [3]; 10 mM STZ, pH 6.5, over six hours) | expected ratio of reaction velocities VControl/VSTZ, O-GlcNAcase (O-GlcNAcase [3]; calculated assuming competitive inhibition, KI=1.5 mM, 1.2 mM STZ in assay) | pIC50 (O-GlcNAcase [4]) | inhibition of O-GlcNAcase, in words (O-GlcNAcase [5]) | selectivity for O-GlcNAcase over β-hexosaminidase, in words (O-GlcNAcase [5]) | selectivity ratio for O-GlcNAcase over β-hexosaminidase (O-GlcNAcase [5]) [fold] | Selectivity Ratio (β-Hex KI/O-GlcNAcase KI) (O-GlcNAcase [5]; Table 2) | pKi (O-GlcNAcase [5]; read-out: KI, O-GlcNAcase, pH 6.5) | proliferation rate or morphology compared to control cells (COS-7 cells) | cellular levels of O-GlcNAc-modified proteins compared to control [6] |
| --- | --- | --- | --- | --- | --- | --- | --- | --- | --- | --- | --- | --- | --- | --- | --- |
|  | CN(N=O)C(=O)N[C@H]1C(O)O[C@H](CO)[C@@H](O)[C@@H]1O (mixture of isomers) [STZ, streptozotocin] | 1.33 | 1.33 | did not act as a time dependent inactivator; also recorded: does not show a time dependent inactivation | greater than 6 hours | did not act as a time dependent inactivator; also recorded: does not show a time dependent inactivation | 1.17 | 2.60 to 3.00 | poor inhibitor | moderate selectivity | 31 | 31 | 2.82 |  |  |
| 17000 | CC1=N[C@@H]2[C@@H](O)[C@H](O)[C@@H](CO)O[C@@H]2S1 [Compound 9a, 2′-methyl-α-D-glucopyrano-[2,1-d]-Δ2′-thiazoline, reference compound] |  |  |  |  |  |  |  |  |  |  |  |  | no abnormalities in proliferation rate or morphology | Marked increases; also recorded: increase in cellular levels of O-GlcNAc-modified proteins |
|  | CC(C)CC1=NC2C(OC(CO)C(O)C2O)S1 [Compound 9g, 1,2-dideoxy-2′-isobutyl-α-D-glucopyranoso-[2,1-d]-42′-triazoline D] |  |  |  |  |  |  |  | good inhibitors |  |  |  |  | no abnormalities in proliferation rate or morphology | Marked increases; also recorded: increase in cellular levels of O-GlcNAc-modified proteins |
